Results: patent publication US20230355622A1, “METHODS OF CHEMOVACCINATION AGAINST PLASMODIUM INFECTIONS” (Merck Sharp & Dohme LLC, priority 2020, published 2023)
Like-named read-outs stand apart in the source and are kept apart here.

System: parasite
Test: Parasite LDH growth assay (Parasite Assay), antiparasite potency
Format: cell-based
Conditions: parasite LDH growth assay, ring stage parasites, 72 hours incubation at 37° C., read-out: EC50
Outline: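 Growth was read by an LDH assay after a freeze–thaw cycle (−80 °C overnight, 4 h thaw at RT). Before that, parasites grew with compound for 72 h at 37 °C under gassed, humidified conditions. The input was a ring-stage culture adjusted to 0.7% parasitemia and 2% haematocrit in serum (5%)/albumax (0.5%)-supplemented RPMI-Hepes.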

Compound | EC50 (72 h) [nM] | EC50 [nM]
CC[C@]1(C)CC(=O)N([C@H]2c3cc(C(=O)N[C@@H]4c5ccccc5OC(C)(C)[C@H]4O)ccc3C[C@@H]2C)C(=N)N1 [Example 169, (2S,3R)-3-[(4R)-4-ethyl-2-imino-4-methyl-6-oxo-hexahydropyrimidin-1-yl]-N-[(3S,4R)-3-hydroxy-2,2-dimethyl-chroman-4-yl]-2-methyl-indane-5-carboxamide] | 0.3 | –
CC[C@]1(C)CC(=O)N([C@@H]2C[C@@H](C)c3ccc(C(=O)N[C@@H]4c5ccccc5OC(C)(C)[C@H]4O)cc32)C(=N)N1 [Example 171, (1R,3R)-3-[(4R)-4-ethyl-2-imino-4-methyl-6-oxo-hexahydropyrimidin-1-yl]-N-[(3S,4R)-3-hydroxy-2,2-dimethyl-chroman-4-yl]-1-methyl-indane-5-carboxamide] | 0.7 | –
CC1(C)CC(=O)N([C@@H]2CCOc3ccc(C(=O)N[C@@H]4c5ccccc5OC(C)(C)[C@@]4(C)O)cc32)C(=N)N1 [Example 172, (4R)-N-[(3S,4R)-3-hydroxy-2,2,3-trimethyl-chroman-4-yl]-4-(2-imino-4,4-dimethyl-6-oxo-hexahydropyrimidin-1-yl)chromane-6-carboxamide] | 0.9 | –
CCC1(CC)CC(=O)N([C@@H]2CCOc3ccc(C(=O)NC4c5ccccc5OC4(C)CO)cc32)C(=N)N1 (stereo partly drawn) [Example 176B, (4R)-4-(4,4-diethyl-2-imino-6-oxo-hexahydropyrimidin-1-yl)-N-[2-(hydroxymethyl)-2-methyl-3H-benzofuran-3-yl]chromane-6-carboxamide] | – | 7.8
CC1(C)CC(=O)N([C@H]2c3cc(C(=O)N[C@@H]4c5ccccc5OC(C)(C)[C@H]4O)ccc3OC2(C)C)C(=N)N1 [Example 182, (3S)-N-[(3S,4R)-3-hydroxy-2,2-dimethyl-chroman-4-yl]-3-(2-imino-4,4-dimethyl-6-oxo-hexahydropyrimidin-1-yl)-2,2-dimethyl-3H-benzofuran-5-carboxamide] | 6.1 | –
COC1COc2ccc(C(=O)N[C@@H]3c4ccccc4OC[C@@]3(C)O)cc2C1N1C(=N)NC(C)(C)CC1=O (stereo partly drawn) [Example 186, N-[(3S,4R)-3-hydroxy-3-methyl-chroman-4-yl]-4-(2-imino-4,4-dimethyl-6-oxo-hexahydropyrimidin-1-yl)-3-methoxy-chromane-6-carboxamide] | 70 | –
CC1(C)CC(=O)N([C@@H]2CCOc3ccc(C(=O)N[C@@H]4c5cc(F)ccc5OC(C)(C)[C@H]4O)cc32)C(=N)N1 [Example 189, (4R)-N-[(3S,4R)-6-fluoro-3-hydroxy-2,2-dimethyl-chroman-4-yl]-4-(2-imino-4,4-dimethyl-6-oxo-hexahydropyrimidin-1-yl)chromane-6-carboxamide] | 1 | –
CC[C@]1(C)CC(=O)N([C@@H]2CCOc3ccc(C(=O)NC4c5c(F)cccc5OCC4(C)O)cc32)C(=N)N1 (stereo partly drawn) [Example 193B, (4R)-4-[(4R)-4-ethyl-2-imino-4-methyl-6-oxo-hexahydropyrimidin-1-yl]-N-(5-fluoro-3-hydroxy-3-methyl-chroman-4-yl)chromane-6-carboxamide] | – | 0.8
CCC1(CC)CC(=O)N([C@@H]2CCOc3ccc(C(=O)NC(c4ccccc4)c4ccccc4)cc32)C(=N)N1 [Example 194, (4R)-N-benzhydryl-4-(4,4-diethyl-2-imino-6-oxo-hexahydropyrimidin-1-yl)chromane-6-carboxamide] | 0.9 | –
CC1(C)CC(=O)N([C@@H]2CC(F)(F)c3ccc(C(=O)N[C@@H]4c5ccccc5OC(C)(C)[C@H]4O)cc32)C(=N)N1 [Example 199, (3R)-1,1-difluoro-N-[(3S,4R)-3-hydroxy-2,2-dimethyl-chroman-4-yl]-3-(2-imino-4,4-dimethyl-6-oxo-hexahydropyrimidin-1-yl)indane-5-carboxamide] | 1.1 | –
CC[C@]1(C)CC(=O)N([C@H]2c3cc(C(=O)N[C@@H]4c5ccccc5C[C@@]4(C)O)ccc3OC[C@@H]2COC)C(=N)N1 [Example 202, (3S,4R)-4-[(4R)-4-ethyl-2-imino-4-methyl-6-oxo-hexahydropyrimidin-1-yl]-N-[(1R,2R)-2-hydroxy-2-methyl-indan-1-yl]-3-(methoxymethyl)chromane-6-carboxamide] | 0.8 | –
CCC1(CC)CC(=O)N([C@@H]2C[C@@H](OC)c3ccc(C(=O)N[C@@H]4c5ccccc5OC[C@@]4(C)O)cc32)C(=N)N1 [Example 203, (1R,3R)-3-(4,4-diethyl-2-imino-6-oxo-hexahydropyrimidin-1-yl)-N-[(3S,4R)-3-hydroxy-3-methyl-chroman-4-yl]-1-methoxy-indane-5-carboxamide] | 5.9 | –
CCC1(CC)CC(=O)N(C2c3cc(C(=O)N[C@@H]4c5ccccc5C[C@]4(C)O)ccc3OCC2OC)C(=N)N1 (stereo partly drawn) [Example 213, 4-(4,4-diethyl-2-imino-6-oxo-hexahydropyrimidin-1-yl)-N-[(1R,2S)-2-hydroxy-2-methyl-indan-1-yl]-3-methoxy-chromane-6-carboxamide] | 9 | –
CCC1(CC)CC(=O)N([C@H]2CCS(=O)(=O)c3ccc(C(=O)N[C@@H]4c5ccccc5C[C@H]4O)cc32)C(=N)N1 [Example 223, (4S)-4-(4,4-diethyl-2-imino-6-oxo-hexahydropyrimidin-1-yl)-N-[(1R,2R)-2-hydroxyindan-1-yl]-1,1-dioxo-3,4-dihydro-2H-thiochromene-6-carboxamide] | 300 | –
CC[C@]1(C)CC(=O)N([C@@H]2CCOc3ccc(C(=O)N[C@@H]4c5cc(F)ccc5OC(C)(C)[C@H]4O)cc32)C(=N)N1 [Example 224, (4R)-4-[(4R)-4-ethyl-2-imino-4-methyl-6-oxo-hexahydropyrimidin-1-yl]-N-[(3S,4R)-6-fluoro-3-hydroxy-2,2-dimethyl-chroman-4-yl]chromane-6-carboxamide] | 0.3 | –
CC[C@@]1(C)CC(=O)N([C@@H]2CCOc3ccc(C(=O)N[C@@H]4c5cc(F)ccc5OC(C)(C)[C@H]4O)cc32)C(=N)N1 [Example 225, (4R)-4-[(4S)-4-ethyl-2-imino-4-methyl-6-oxo-hexahydropyrimidin-1-yl]-N-[(3S,4R)-6-fluoro-3-hydroxy-2,2-dimethyl-chroman-4-yl]chromane-6-carboxamide] | 0.8 | –
CCC1(CC)CC(=O)N([C@@H]2CCOc3ccc(C(=O)NC4c5cc(F)ccc5OCC4(C)O)cc32)C(=N)N1 (stereo partly drawn) [Example 226D, (4R)-4-(4,4-diethyl-2-imino-6-oxo-hexahydropyrimidin-1-yl)-N-(6-fluoro-3-hydroxy-3-methyl-chroman-4-yl)chromane-6-carboxamide] | – | 1
CCC1(CC)CC(=O)N([C@H]2c3cc(C(=O)N[C@@H]4c5ccccc5C[C@@]4(C)O)ccc3OC[C@H]2COC)C(=N)N1 [Example 235, (3R,4R)-4-(4,4-diethyl-2-imino-6-oxo-hexahydropyrimidin-1-yl)-N-[(1R,2R)-2-hydroxy-2-methyl-indan-1-yl]-3-(methoxymethyl)chromane-6-carboxamide] | 0.7 | –
CCC1(CC)CC(=O)N([C@@H]2C[C@@H](OC)c3ccc(C(=O)N[C@@H]4c5ccccc5OC(C)(C)[C@H]4O)cc32)C(=N)N1 [Example 236, (1R,3R)-3-(4,4-diethyl-2-imino-6-oxo-hexahydropyrimidin-1-yl)-N-[(3S,4R)-3-hydroxy-2,2-dimethyl-chroman-4-yl]-1-methoxy-indane-5-carboxamide] | 0.9 | –
CCC1(CC)CC(=O)N([C@@H]2C[C@H](OC)c3ccc(C(=O)N[C@@H]4c5ccccc5OC(C)(C)[C@H]4O)cc32)C(=N)N1 [Example 239, (1S,3R)-3-(4,4-diethyl-2-imino-6-oxo-hexahydropyrimidin-1-yl)-N-[(3S,4R)-3-hydroxy-2,2-dimethyl-chroman-4-yl]-1-methoxy-indane-5-carboxamide] | 0.9 | –
CCC1(CC)CC(=O)N([C@H]2c3cc(C(=O)N[C@@H]4c5ccccc5OC(C)(C)[C@H]4O)ccc3OC[C@@H]2C)C(=N)N1 [Example 240, (3R,4R)-4-(4,4-diethyl-2-imino-6-oxo-hexahydropyrimidin-1-yl)-N-[(3S,4R)-3-hydroxy-2,2-dimethyl-chroman-4-yl]-3-methyl-chromane-6-carboxamide] | 0.6 | –
CCC1(CC)CC(=O)N([C@H]2c3cc(C(=O)N[C@@H]4c5ccccc5OC(C)(C)[C@H]4O)ccc3OC[C@H]2C)C(=N)N1 [Example 241, (3S,4R)-4-(4,4-diethyl-2-imino-6-oxo-hexahydropyrimidin-1-yl)-N-[(3S,4R)-3-hydroxy-2,2-dimethyl-chroman-4-yl]-3-methyl-chromane-6-carboxamide] | 0.4 | –
CCC1(CC)CC(=O)N([C@@H]2CCOc3ccc(C(=O)NC4c5ccccc5OC(C)(C)C4(C)O)cc32)C(=N)N1 (stereo partly drawn) [Example 242A, (4R)-4-(4,4-diethyl-2-imino-6-oxo-hexahydropyrimidin-1-yl)-N-(3-hydroxy-2,2,3-trimethyl-chroman-4-yl)chromane-6-carboxamide] | – | 0.6
CCC1(CC)CC(=O)N([C@H]2c3cc(C(=O)N[C@@H]4c5ccccc5OC(C)(C)[C@H]4O)ccc3OC2(C)C)C(=N)N1 [Example 245, (3S)-3-(4,4-diethyl-2-imino-6-oxo-hexahydropyrimidin-1-yl)-N-[(3S,4R)-3-hydroxy-2,2-dimethyl-chroman-4-yl]-2,2-dimethyl-3H-benzofuran-5-carboxamide] | 0.8 | –
CCC1(CC)CC(=O)N([C@@H]2C[C@@H](C)Oc3ccc(C(=O)N[C@@H]4c5ccccc5OC(C)(C)[C@H]4O)cc32)C(=N)N1 [Example 246, (2R,4R)-4-(4,4-diethyl-2-imino-6-oxo-hexahydropyrimidin-1-yl)-N-[(3S,4R)-3-hydroxy-2,2-dimethyl-chroman-4-yl]-2-methyl-chromane-6-carboxamide] | 2 | –
CCC1(CC)CC(=O)N([C@H]2c3cc(C(=O)N[C@@H]4c5ccccc5OC[C@@]4(C)O)ccc3CC[C@@H]2OC)C(=N)N1 [Example 247, (3S,4S)-4-(4,4-diethyl-2-imino-6-oxo-hexahydropyrimidin-1-yl)-N-[(3S,4R)-3-hydroxy-3-methyl-chroman-4-yl]-3-methoxy-tetralin-6-carboxamide] | 4.5 | –
